Measurements published in ChEMBL document CHEMBL1201862, “PubChem BioAssay data set” (2004).
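All cell lines were grown in 96-well plates and treated with compound for 48 hours. Here, GI50 denotes the concentration required for 50% inhibition of growth.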 The source made the active and inactive calls. Rule as the data show it: active = GI50 up to about 1.1 µM and inactive = higher. Square brackets hold non-standard residues; d marks the D form. Peptide text beside a SMILES is read from it. * marks the point of attachment. Phe(4-NO2) = N[CH](Cc1ccc([N+](=O)[O-])cc1)C(=O)O; Cbz = O=C(OCc1ccccc1)*

Columns and labels:
Experiment in all cases: NCI tumour cell line growth inhibition, 48 h
TK-10 = test system: TK-10
UACC-257 = test system: UACC-257
M14 = test system: M14
Hs-578T = test system: Hs-578T
CAKI-1 = test system: CAKI-1
SN12C = test system: SN12C
SK-OV-3 = test system: SK-OV-3
RXF 393 = test system: RXF 393
SW-620 = test system: SW-620
MCF7 = test system: MCF7
SK-MEL-5 = test system: SK-MEL-5
PC-3 = test system: PC-3
NCI-H522 = test system: NCI-H522
MDA-MB-435 = test system: MDA-MB-435
HT-29 = test system: HT-29
SF-295 = test system: SF-295
DU-145 = test system: DU-145
MDA-N = test system: MDA-N
ACHN = test system: ACHN
HL-60 = test system: HL-60

Measured: GI50

O=C(Oc1ccc2c(c1)CN(Cc1ccccc1)CO2)c1ccccc1
inactive: TK-10 16.2 µM | UACC-257 15.1 µM | M14 18 µM | Hs-578T 23.7 µM | CAKI-1 20 µM | SN12C 17.1 µM | SK-OV-3 16.6 µM | RXF 393 15.2 µM | SW-620 22.8 µM | MCF7 16.9 µM | SK-MEL-5 17.1 µM | PC-3 15.9 µM | NCI-H522 7.06 µM | MDA-MB-435 21.8 µM | HT-29 18.5 µM | SF-295 17.8 µM | DU-145 17.9 µM | MDA-N 16.8 µM | ACHN 18.8 µM

CS(=O)(=O)N(CC(=O)O)Cc1ccccc1
inactive: TK-10 > 100 µM | UACC-257 > 100 µM | M14 > 100 µM | Hs-578T > 100 µM | CAKI-1 > 100 µM | SN12C > 100 µM | SK-OV-3 > 100 µM | RXF 393 > 100 µM | SW-620 > 100 µM | MCF7 > 100 µM | SK-MEL-5 > 100 µM | PC-3 > 100 µM | NCI-H522 > 100 µM | MDA-MB-435 > 100 µM | HT-29 > 100 µM | SF-295 > 100 µM | DU-145 > 100 µM | MDA-N > 100 µM | ACHN > 100 µM

Cc1nc2ccccc2c(=O)n1NC(=O)c1ccccc1O
inactive: TK-10 > 100 µM | UACC-257 > 100 µM | M14 > 100 µM | Hs-578T > 100 µM | SN12C > 100 µM | SK-OV-3 > 100 µM | RXF 393 > 100 µM | SW-620 > 100 µM | MCF7 > 100 µM | SK-MEL-5 > 100 µM | PC-3 > 100 µM | NCI-H522 > 100 µM | MDA-MB-435 > 100 µM | HT-29 > 100 µM | HL-60 > 100 µM | SF-295 > 100 µM | DU-145 > 100 µM | MDA-N > 100 µM | ACHN > 100 µM

O=[N+]([O-])C(=C(Nc1cccc2cccnc12)Nc1cccc2cccnc12)C(Cl)=C(Cl)Cl
inactive: TK-10 > 100 µM | M14 > 100 µM | Hs-578T > 21.7 µM | CAKI-1 > 49.9 µM | SN12C > 55.1 µM | SK-OV-3 > 100 µM | RXF 393 30 µM | SW-620 66.7 µM | MCF7 13.5 µM | SK-MEL-5 4.97 µM | PC-3 > 76 µM | NCI-H522 17.3 µM | MDA-MB-435 36.6 µM | HT-29 > 39 µM | SF-295 43 µM | DU-145 58.3 µM | MDA-N 31.7 µM | ACHN 22 µM

C1=N\CCOCC/N=C\c2ccc(cc2)OCc2cccc(n2)COc2ccc/1cc2
inactive: TK-10 > 100 µM | UACC-257 > 100 µM | M14 > 100 µM | Hs-578T > 100 µM | SN12C > 100 µM | SK-OV-3 > 100 µM | RXF 393 > 100 µM | SW-620 > 100 µM | MCF7 85.5 µM | PC-3 > 100 µM | NCI-H522 > 100 µM | MDA-MB-435 > 100 µM | HT-29 > 100 µM | HL-60 > 100 µM | SF-295 98.2 µM | DU-145 > 100 µM | MDA-N > 100 µM | ACHN > 100 µM

O=C(OC[C@H]1C[C@H]2C(=O)CCC[C@H]2O1)c1ccccc1
inactive: TK-10 > 100 µM | UACC-257 > 100 µM | M14 > 100 µM | Hs-578T > 100 µM | CAKI-1 > 100 µM | SN12C > 100 µM | SK-OV-3 > 100 µM | SW-620 > 100 µM | MCF7 > 100 µM | SK-MEL-5 > 100 µM | PC-3 > 100 µM | NCI-H522 > 100 µM | MDA-MB-435 > 100 µM | HT-29 > 100 µM | HL-60 > 100 µM | SF-295 > 100 µM | DU-145 > 100 µM | MDA-N > 100 µM | ACHN > 100 µM

CCOC(=O)CCC(NC(=O)OCc1ccccc1)C(=O)NC(CCC(=O)OCC)C(=O)NC(CCC(=O)OCC)C(=O)NC(CCC(=O)OCC)C(=O)NC(CCC(=O)OCC)C(=O)NC(Cc1ccc([N+](=O)[O-])cc1)C(=O)NC(CCC(=O)OCC)C(=O)NC(CCC(=O)OCC)C(=O)NC(CCC(=O)OCC)C(=O)NC(CCC(=O)OCC)C(=O)NC(CCC(=O)OCC)C(=O)OCC (stereo not given) (Cbz-E(OEt)E(OEt)E(OEt)E(OEt)E(OEt)[Phe(4-NO2)]E(OEt)E(OEt)E(OEt)E(OEt)E(OEt)-OEt; configuration not given here)
inactive: TK-10 > 50 µM | M14 16.8 µM | Hs-578T > 50 µM | SN12C > 50 µM | SK-OV-3 > 50 µM | RXF 393 > 50 µM | SW-620 > 50 µM | MCF7 > 50 µM | SK-MEL-5 > 50 µM | PC-3 > 50 µM | NCI-H522 > 50 µM | MDA-MB-435 > 50 µM | HT-29 > 50 µM | HL-60 > 50 µM | DU-145 > 50 µM | MDA-N > 50 µM | ACHN > 50 µM

COc1cc2nc3n(c2cc1OC)C(O)c1c(Cl)nc(SC)nc1S3 (stereo not given)
inactive: TK-10 5.46 µM | UACC-257 13.1 µM | M14 2.67 µM | Hs-578T 2.77 µM | CAKI-1 7.24 µM | SN12C 3.86 µM | SK-OV-3 3.59 µM | RXF 393 2.3 µM | SW-620 3.33 µM | MCF7 3.36 µM | SK-MEL-5 1.92 µM | PC-3 2.75 µM | NCI-H522 1.72 µM | MDA-MB-435 4.01 µM | HT-29 3.22 µM | SF-295 7.4 µM | DU-145 2.39 µM | MDA-N 3.36 µM | ACHN 3.3 µM

O=CC(O)C(O)C(O)C(O)C(=O)NCCCCCCCCCCCCNC(=O)C(O)C(O)C(O)C(O)C=O (stereo not given)
inactive: TK-10 > 100 µM | UACC-257 > 100 µM | M14 > 100 µM | Hs-578T > 100 µM | SK-OV-3 > 100 µM | RXF 393 > 100 µM | SW-620 > 100 µM | MCF7 > 100 µM | SK-MEL-5 > 100 µM | PC-3 > 100 µM | NCI-H522 > 100 µM | MDA-MB-435 > 100 µM | HT-29 > 100 µM | HL-60 > 100 µM | SF-295 > 100 µM | DU-145 > 100 µM | MDA-N > 100 µM | ACHN > 100 µM

CC1OC(O)C(O)C(O)C1O (stereo not given)
inactive: TK-10 > 100 µM | UACC-257 > 100 µM | M14 > 100 µM | Hs-578T > 100 µM | CAKI-1 > 100 µM | SN12C > 100 µM | SK-OV-3 > 100 µM | RXF 393 > 100 µM | SW-620 > 100 µM | MCF7 > 100 µM | SK-MEL-5 > 100 µM | PC-3 > 100 µM | NCI-H522 > 100 µM | MDA-MB-435 > 100 µM | HT-29 > 100 µM | SF-295 > 100 µM | DU-145 > 100 µM | MDA-N > 100 µM | ACHN > 100 µM
